Experimental data: patent publication US9815839B2, “N-(1-(substituted-phenyl)ethyl)-9H-purin-6-amines as PI3K inhibitors” (Incyte Corporation, priority 2010, dated 2017)
Counter-ions that a name gives are not always drawn.

How the values were obtained:
PI3Kδ (p110δ/p85α) = target: T1, PI3Kδ (p110δ/p85α) (Homo sapiens, UniProt O00329); experiment: PI3Kδ scintillation proximity assay; format: biochemical; settings: 20 μM ATP, 4 nM PI3Kδ
T1 construct: purchased Millipore (Bedford, Mass.)
Summary of the method: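 Radiometric SPA: product captured on WGA beads after EDTA quench and counted, IC50 fitted against log inhibitor concentration. Reactions ran 210 min at room temperature with 4 nM PI3Kδ (p110δ/p85α), 20 μM each PIP2 and ATP plus 33P-ATP, pH 6.7 MOPS buffer, 0.5% DMSO final.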

[1] = system: Pfeiffer cell line (diffuse large B cell lymphoma); experiment: Pfeiffer cell proliferation assay; format: cell-based; settings: Homo sapiens, Pfeiffer, Pfeiffer cells, 3-4 days plus 12 hours [3H]-thymidine incorporation
Description: Example C: Pfeiffer Cell Proliferation Assay
Pfeiffer cell line (diffuse large B cell lymphoma) was purchased from ATCC (Manassas, Va.) and maintained in the culture medium recommended (RPMI and 10% FBS). To measure the anti-proliferation activity of the compounds, the Pfeiffer cells were plated with the culture medium (2×10^3 cells/well/per 200 μl) into 96-well ultra-low binding plates (Corning, Corning, N.Y.), in the presence or absence of a concentration range of test compounds. After 3-4 days, [^3H]-thymidine (1 μCi/well) (PerkinElmer, Boston, Mass.) in PBS was then added to the cell culture for an additional 12 hours before the incorporated radioactivity was separated by filtration with water through GF/B filters (Packard Bioscience, Meridenj, Conn.) and measured by liquid scintillation counting with a TopCount (Packard Bioscience).

T1 sequence (O00329 whole entry, species assumed): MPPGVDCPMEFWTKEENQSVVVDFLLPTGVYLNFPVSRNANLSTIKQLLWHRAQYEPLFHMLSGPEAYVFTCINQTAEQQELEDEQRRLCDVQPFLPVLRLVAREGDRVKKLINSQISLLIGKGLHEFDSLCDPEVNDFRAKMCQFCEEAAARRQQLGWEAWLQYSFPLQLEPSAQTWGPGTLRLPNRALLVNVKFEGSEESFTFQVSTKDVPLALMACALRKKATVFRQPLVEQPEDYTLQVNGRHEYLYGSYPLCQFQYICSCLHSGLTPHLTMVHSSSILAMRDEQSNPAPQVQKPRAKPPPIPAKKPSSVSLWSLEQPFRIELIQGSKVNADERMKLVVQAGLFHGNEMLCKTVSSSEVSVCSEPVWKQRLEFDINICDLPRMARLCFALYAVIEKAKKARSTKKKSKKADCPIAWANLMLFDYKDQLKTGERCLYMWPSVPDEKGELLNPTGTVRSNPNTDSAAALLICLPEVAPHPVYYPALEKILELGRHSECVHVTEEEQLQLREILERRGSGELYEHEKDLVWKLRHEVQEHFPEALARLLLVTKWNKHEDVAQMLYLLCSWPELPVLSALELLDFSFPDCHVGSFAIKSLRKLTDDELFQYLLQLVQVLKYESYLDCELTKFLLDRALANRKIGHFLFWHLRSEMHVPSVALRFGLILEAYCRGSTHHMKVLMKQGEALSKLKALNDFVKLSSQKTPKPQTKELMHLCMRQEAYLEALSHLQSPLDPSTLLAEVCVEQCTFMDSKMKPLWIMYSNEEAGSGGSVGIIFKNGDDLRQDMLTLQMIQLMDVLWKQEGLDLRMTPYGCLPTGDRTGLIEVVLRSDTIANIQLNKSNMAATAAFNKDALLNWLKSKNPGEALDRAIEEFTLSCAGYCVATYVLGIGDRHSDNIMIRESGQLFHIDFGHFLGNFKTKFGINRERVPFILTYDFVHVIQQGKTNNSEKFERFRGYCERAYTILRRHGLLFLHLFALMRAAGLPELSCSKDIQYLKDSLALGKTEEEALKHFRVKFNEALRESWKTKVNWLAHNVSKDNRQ
T1 sequence (P27986 whole entry partner, species assumed): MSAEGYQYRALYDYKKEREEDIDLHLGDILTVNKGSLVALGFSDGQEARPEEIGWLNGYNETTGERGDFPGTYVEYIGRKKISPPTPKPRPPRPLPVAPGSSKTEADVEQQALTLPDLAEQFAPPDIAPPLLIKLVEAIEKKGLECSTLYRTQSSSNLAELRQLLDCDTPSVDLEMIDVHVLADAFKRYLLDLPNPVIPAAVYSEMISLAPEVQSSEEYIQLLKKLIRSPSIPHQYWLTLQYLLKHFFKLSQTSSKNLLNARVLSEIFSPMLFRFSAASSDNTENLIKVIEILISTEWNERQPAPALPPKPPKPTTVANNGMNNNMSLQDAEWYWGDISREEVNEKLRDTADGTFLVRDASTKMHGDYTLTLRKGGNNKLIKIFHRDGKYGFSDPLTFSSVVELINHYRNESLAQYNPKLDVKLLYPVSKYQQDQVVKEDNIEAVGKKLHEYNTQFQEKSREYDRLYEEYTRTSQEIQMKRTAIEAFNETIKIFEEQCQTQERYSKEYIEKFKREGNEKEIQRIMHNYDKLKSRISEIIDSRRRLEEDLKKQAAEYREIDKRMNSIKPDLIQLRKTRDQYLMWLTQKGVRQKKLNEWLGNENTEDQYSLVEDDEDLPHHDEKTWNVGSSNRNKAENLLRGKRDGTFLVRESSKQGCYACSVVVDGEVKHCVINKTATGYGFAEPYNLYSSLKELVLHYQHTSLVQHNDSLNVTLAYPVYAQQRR

| IC50 (PI3Kδ (p110δ/p85α)) | IC50 [1] | SMILES |
| --- | --- | --- |
| < 50 nM | < 100 nM | COc1c(C(C)Nc2ncnc3[nH]cnc23)cc(Cl)c(C)c1-c1ccnn1C (centres unmarked) [Example 21, N-{1-[5-chloro-2-methoxy-4-methyl-3-(1-methyl-1H-pyrazol-5-yl)phenyl]ethyl}-9H-purin-6-amine] |
| 100 to 250 nM | > 1000 nM | Cc1c(Cl)cc(C(C)Nc2ncnc3[nH]cnc23)c(-c2cccc(F)c2)c1[N+](=O)[O-] (centres unmarked) [Example 3, N-[1-(4-chloro-3′-fluoro-5-methyl-6-nitrobiphenyl-2-yl)ethyl]-9H-purin-6-amine] |
| 100 to 250 nM | 100 to 500 nM | Cc1c(Cl)cc(C(C)Nc2ncnc3[nH]cnc23)c(-c2cc(F)cc(F)c2)c1-c1ccc(C#N)cc1 (centres unmarked) [Example 79, 5′-chloro-3″,5″-difluoro-6′-methyl-3′-[1-(9H-purin-6-ylamino)ethyl]-1,1′:2′,1″-terphenyl-4-carbonitrile] |
| < 50 nM | < 100 nM | COc1c(C(C)Nc2ncnc3[nH]cnc23)cc(Cl)c(C)c1C1CCN(C)CC1 (centres unmarked) [Example 176, N-{1-[5-Chloro-2-methoxy-4-methyl-3-(1-methylpiperidin-4-yl)phenyl]ethyl}-9H-purin-6-amine] |
| < 50 nM | < 100 nM | COc1c(C(C)Nc2ncnc3[nH]cnc23)cc(Cl)c(Cl)c1C1CN(CC2CCOC2)C1 (centres unmarked) [Example 202, N-(1-{4,5-dichloro-2-methoxy-3-[1-(tetrahydrofuran-3-ylmethyl)azetidin-3-yl]phenyl}ethyl)-9H-purin-6-amine] |
| < 50 nM | < 100 nM | CCOc1c(C(C)Nc2ncnc3[nH]cnc23)cc(Cl)c(C#N)c1-c1ccc(C(=O)N(C)C)nc1 (centres unmarked) [Example 179, 5-{3-chloro-2-cyano-6-ethoxy-5-[1-(9H-purin-6-ylamino)ethyl]phenyl}-N,N-dimethylpyridine-2-carboxamide bis(2,2,2-trifluoroacetate)] |
| 50 to 100 nM | 100 to 500 nM | COc1ccc(-c2c(C)c(Cl)cc(C(C)Nc3ncnc4[nH]cnc34)c2OC)cc1Cl (centres unmarked) [Example 97, N-[1-(3′,5-dichloro-2,4′-dimethoxy-6-methylbiphenyl-3-yl)ethyl]-9H-purin-6-amine] |
| < 50 nM | < 100 nM | Cc1c(Cl)cc(C(C)Nc2ncnc3[nH]cnc23)c(-c2ccccc2)c1-c1cnc(N)nc1 (centres unmarked) [Example 17, N-{1-[6-(2-aminopyrimidin-5-yl)-4-chloro-5-methylbiphenyl-2-yl]ethyl}-9H-purin-6-amine] |
| < 50 nM | < 100 nM | COc1c(C(C)Nc2ncnc3[nH]cnc23)cc(Cl)c(Cl)c1C1CN(CC2CC2)C1 (centres unmarked) [Example 201, N-(1-{4,5-Dichloro-3-[1-(cyclopropylmethyl)azetidin-3-yl]-2-methoxyphenyl}ethyl)-9H-purin-6-amine] |
| < 50 nM | < 100 nM | COCCN1CC(c2c(Cl)c(Cl)cc(C(C)Nc3ncnc4[nH]cnc34)c2OC)C1 (centres unmarked) [Example 200, N-(1-{4,5-Dichloro-2-methoxy-3-[1-(2-methoxyethyl)azetidin-3-yl]phenyl}ethyl)-9H-purin-6-amine] |
| < 50 nM | < 100 nM | Cc1c(Cl)cc(C(C)Nc2ncnc3[nH]cnc23)c(-c2ccccc2)c1-c1cc(F)nc(F)c1 (centres unmarked) [Example 13, N-{1-[4-chloro-6-(2,6-difluoropyridin-4-yl)-5-methylbiphenyl-2-yl]ethyl}-9H-purin-6-amine] |
| < 50 nM | 100 to 500 nM | COCc1ccc(-c2c(C)c(Cl)cc(C(C)Nc3ncnc4[nH]cnc34)c2OC)cc1 (centres unmarked) [Example 42, N-{1-[5-chloro-2-methoxy-4′-(methoxymethyl)-6-methylbiphenyl-3-yl]ethyl}-9H-purin-6-amine] |
| < 50 nM | < 100 nM | COc1c(C(C)Nc2ncnc3[nH]cnc23)cc(Cl)c(Cl)c1C1CN(C)C1 (centres unmarked) [Example 199, N-{1-[4,5-Dichloro-2-methoxy-3-(1-methylazetidin-3-yl)phenyl]ethyl}-9H-purin-6-amine] |
| < 50 nM | > 1000 nM | COc1c(C(C)Nc2ncnc3[nH]cnc23)cc(Cl)c(C)c1-c1cccc(N(C)C)c1 (centres unmarked) [Example 100, N-{1-[5-chloro-3′-(dimethylamino)-2-methoxy-6-methylbiphenyl-3-yl]ethyl}-9H-purin-6-amine] |
| < 50 nM | 100 to 500 nM | COc1c(C(C)Nc2ncnc3[nH]cnc23)cc(Cl)c(C)c1-c1ccc(NC(C)=O)cc1 (centres unmarked) [Example 27, N-{3′-chloro-6′-methoxy-2′-methyl-5′-[1-(9H-purin-6-ylamino)ethyl]biphenyl-4-yl}acetamide] |
| < 50 nM | < 100 nM | COc1c(C(C)Nc2ncnc3[nH]cnc23)cc(Cl)c(C)c1C1CN(C(C)=O)C1 (centres unmarked) [Example 166, N-{1-[3-(1-Acetylazetidin-3-yl)-5-chloro-2-methoxy-4-methylphenyl]ethyl}-9H-purin-6-amine trifluoroacetate] |

| IC50 (PI3Kδ (p110δ/p85α)) | IC50 [1] | SMILES |
| --- | --- | --- |
| < 50 nM | 100 to 500 nM | COc1c(C(C)Nc2ncnc3[nH]cnc23)cc(Cl)c(C)c1-c1ccc(C#N)cc1 (centres unmarked) [Example 30, 3′-chloro-6′-methoxy-2′-methyl-5′[1-(9H-purin-6-ylamino)ethyl]biphenyl-4-carbonitrile] |
| < 50 nM | > 1000 nM | COc1c(C(C)Nc2ncnc3[nH]cnc23)cc(Cl)c(C)c1N1CCC(O)CC1 (centres unmarked) [Example 60, 1-{3-Chloro-6-methoxy-2-methyl-5-[1-(9H-purin-6-ylamino)ethyl]phenyl}piperidin-4-ol] |
| < 50 nM | < 100 nM | COc1c(C(C)Nc2ncnc3[nH]cnc23)cc(Cl)c(Cl)c1C1CN(CCCC(F)(F)F)C1 (centres unmarked) [Example 203, N-(1-{4,5-Dichloro-2-methoxy-3-[1-(4,4,4-trifluorobutyl)azetidin-3-yl]phenyl}ethyl)-9H-purin-6-amine] |
| < 50 nM | < 100 nM | Cc1c(Cl)cc(C(C)Nc2ncnc3[nH]cnc23)c(-c2cccc(F)c2)c1N(S(C)(=O)=O)S(C)(=O)=O (centres unmarked) [Example 12, N-{4-chloro-3′-fluoro-3-methyl-6-[1-(9H-purin-6-ylamino)ethyl]biphenyl-2-yl}-N-(methylsulfonyl)methanesulfonamide] |
| < 50 nM | 100 to 500 nM | COc1c(C(C)Nc2ncnc3[nH]cnc23)cc(Cl)c(C)c1-c1cc(F)cc(F)c1 (centres unmarked) [Example 29, N-[1-(5-chloro-3′,5′-difluoro-2-methoxy-6-methylbiphenyl-3-yl)ethyl]-9H-purin-6-amine] |
| < 50 nM | < 100 nM | COc1c(C(C)Nc2ncnc3[nH]cnc23)cc(Cl)c(C)c1-c1ccc(NC(C)=O)nc1 (centres unmarked) [Example 112, N-(5-{3-chloro-6-methoxy-2-methyl-5-[1-(9H-purin-6-ylamino)ethyl]phenyl}-pyridin-2-yl)acetamide] |
| < 50 nM | 500 to 1000 nM | COc1cc(-c2c(C)c(Cl)cc(C(C)Nc3ncnc4[nH]cnc34)c2OC)ccc1F (centres unmarked) [Example 95, N-[1-(5-chloro-4′-fluoro-2,3′-dimethoxy-6-methylbiphenyl-3-yl)ethyl]-9H-purin-6-amine] |
| < 50 nM | > 1000 nM | COc1c(C(C)Nc2ncnc3[nH]cnc23)cc(Cl)c(C)c1-c1ccc(CC#N)cc1 (centres unmarked) [Example 41, {3′-chloro-6′-methoxy-2′-methyl-5′-[1-(9H-purin-6-ylamino)ethyl]biphenyl-4-yl}acetonitril] |
| < 50 nM | < 100 nM | COc1c(C(C)Nc2ncnc3[nH]cnc23)cc(Cl)c(Cl)c1C1CN(C(C)=O)C1 (centres unmarked) [Example 195, N-{1-[3-(1-Acetylazetidin-3-yl)-4,5-dichloro-2-methoxyphenyl]ethyl}-9H-purin-6-amine] |
| 100 to 250 nM | > 1000 nM | COc1c(C(C)Nc2ncnc3[nH]cnc23)cc(Cl)c(C)c1-c1ccc(C(F)(F)F)cc1 (centres unmarked) [Example 38, N-{1-[5-chloro-2-methoxy-6-methyl-4′-(trifluoromethyl)biphenyl-3-yl]ethyl}-9H-purin-6-amine] |
| < 50 nM | < 100 nM | COc1c(C(C)Nc2ncnc3[nH]cnc23)cc(Cl)c(C)c1-c1cccc(C(=O)N(C)C)n1 (centres unmarked) [Example 177, 6-{3-chloro-6-methoxy-2-methyl-5-[1-(9H-purin-6-ylamino)ethyl]phenyl}-N,N-dimethylpyridine-2-carboxamide bis(2,2,2-trifluoroacetate)] |
| < 50 nM | < 100 nM | Cc1nn(C)c(C)c1-c1c(C)c(Cl)cc(C(C)Nc2ncnc3[nH]cnc23)c1-c1cccc(F)c1 (centres unmarked) [Example 75, N-{1-[4-chloro-3′-fluoro-5-methyl-6-(1,3,5-trimethyl-1H-pyrazol-4-yl)biphenyl-2-yl]ethyl}-9H-purin-6-amine] |
| < 50 nM | < 100 nM | Cc1c(Cl)cc(C(C)Nc2ncnc3[nH]cnc23)c(-c2ccccc2)c1-c1cnc(N(C)C)nc1 (centres unmarked) [Example 15, N-(1-{4-chloro-6-[2-(dimethylamino)pyrimidin-5-yl]-5-methylbiphenyl-2-yl}ethyl)-9H-purin-6-amine] |
| < 50 nM | < 100 nM | Cc1c(Cl)cc(C(C)Nc2ncnc3[nH]cnc23)c(-c2cc(F)cc(F)c2)c1-c1cncnc1 (centres unmarked) [Example 81, N-[1-(4-chloro-3′,5′-difluoro-5-methyl-6-pyrimidin-5-ylbiphenyl-2-yl)ethyl]-9H-purin-6-amine] |
| 50 to 100 nM | > 1000 nM | CCOc1cccc(-c2c(C)c(Cl)cc(C(C)Nc3ncnc4[nH]cnc34)c2OC)c1 (centres unmarked) [Example 91, N-[1-(5-chloro-3′-ethoxy-2-methoxy-6-methylbiphenyl-3-yl)ethyl]-9H-purin-6-amine] |
